The record followed here is patent publication US4148795A, “Dithiocarbamate ester bactericides and fungicides” (American Cyanamid Company, priority 1976, dated 1979).

Test [1] concerns Aerobacter aerogenes. The format is cell-based. The settings on record: 100 ppm; subcultures 72 hours at 37° C. Also: key: 0: No Effect; 9: Kill of Bacteria; 5: Stasis, but not Kill of all Bacteria.
Test [2] relates to Aspergillus niger. Put plainly: Agar dilution plate. The format is cell-based. The conditions noted are these: An; 100 ppm, 72 hours at 23° C. The method, then: (§1) Test compounds were incorporated in a Sabouraud's dextrose agar in an amount sufficient to provide the active ingredient in a concentration of about 100 ppm. A twenty-ml. sample of the agar mixture is placed in a petri dish and permitted to solidify. An agar sample is inoculated with the test organism set forth below and then covered and incubated for a period of about 72 hours at 23° C. After incubation, growth observations are made. The test results are recorded and the test is repeated twice for the purpose of comparison.
(§2) The data obtained with a variety of test organisms is shown in the table below, and ratings are shown as 0 or 5. O indicates no control, 5 indicates 100% effectiveness of the test compound against the specified organism.
A general note: In agar dilution the substance is mixed into plates at graded concentrations.

Test [3] has as its system Rhizoctonia solani. As to the kind of experiment: Agar dilution plate. In kind it is cell-based. The conditions noted are these: Rs; 100 ppm, 72 hours at 23° C. The method, then: as §1, §2
Test [4] has as its system Fusarium lycopersici. Put plainly: Agar dilution plate. In kind it is cell-based. The conditions noted are these: Fl; 100 ppm, 72 hours at 23° C. As for the experimental part: as §1, §2
Test [5] has as its system Pythium de Baryanum. Put plainly: Agar dilution plate. In kind it is cell-based. The settings on record: Pd; 100 ppm, 72 hours at 23° C. As for the experimental part:
as §1, §2

Test [6] relates to Monilinia fructicola. As to the kind of experiment: Agar dilution plate. The format is cell-based. The settings on record: Mf; 100 ppm, 72 hours at 23° C. The method, then: as §1, §2
For test [7], the system named is Pseudomonas solaracaerum. In kind it is cell-based.
In test [8] the test system is Stemphylium sarcinaeforme. Put plainly: Agar dilution plate. The settings on record: Ss; 100 ppm, 72 hours at 23° C. The format is cell-based. As for the experimental part:
as §1, §2
Ss= Stemphylium sarcinaeforme

In test [9] the test system is Collectotrichum lagenarium. As to the kind of experiment: Agar dilution plate. The format is cell-based. The conditions noted are these: Cl; 100 ppm, 72 hours at 23° C. The method, then: as §1, §2
Cl= Collectotrichum lagenarium

The subject of test [10] is Staphylococcus aureus. The format is cell-based. The conditions noted are these: 100 ppm; subcultures 72 hours at 37° C.
In test [11] the test system is Verticillium albo-atrum. As to the kind of experiment: Agar dilution plate. The format is cell-based. The conditions noted are these: Va; 100 ppm, 72 hours at 23° C. As for the experimental part: as §1, §2
Va= Verticillium albo-atrum

Test [12] has as its system Aspergillus niger. Put plainly: Spore germination inhibition. In kind it is cell-based. The conditions noted are these: 24 hours. The source says: (§3) The test procedure involves the preparation of a 100, 10 or 1 ppm. suspension of test compound in water. The solutions are placed in one dram "opticlear" vials and separately inoculated with one drop of a spore suspension prepared from seven-day cultures of Aspergillus niger and 14-day old cultures of Monilinia fructicola and Stemphylium sarcinaeforme,all grown on potato-dextrose agar. The vials containing the separately inoculated solutions of test compounds are then capped and placed on a rotating tumbler for 24 hours to assure contact of the organism with the test compound. After 24 hours, the vials are removed and examined for inhibition of […].

Test [13] relates to Stemphylium sarcinaeforme. As to the kind of experiment: Spore germination inhibition. In kind it is cell-based. The conditions noted are these: Stemphylium sarciniforme; for inhibition at 100 ppm: 24 h, read-out: % Inhibition of Spore Germination; for inhibition at 1 ppm / inhibition at 10 ppm: 24 hours.
Description: as §3

Test [14] deals with Monilinia fructicola. Put plainly: Spore germination inhibition. The settings on record: for inhibition at 1 ppm / inhibition at 10 ppm: 24 hours; for inhibition at 100 ppm: 24 h, read-out: % Inhibition of Spore Germination. The format is cell-based.
Description: as §3

Test [15] deals with Xanthomonas vesicatoria. In kind it is cell-based. The conditions noted are these: 100 ppm; subcultures 72 hours at 37° C.
In test [16] the test system is Piricularia oryzae. The format is in vivo. On the set-up: scale not given here. The settings on record: Rice Blast, five days.
The test system of test [17] is Phytophthora infestans. The format is in vivo. The settings on record: Tomato Late Blight, five days. On the set-up: scale not given here.
Test [18] has as its system Venturia inaequalis. The conditions noted are these: in vivo. Also: key: 5: clean, no disease; 4: trace of disease; 3: slight disease; 2: moderate disease; 1: severe disease; 0: like controls.

Read-outs that look alike come from different tables or passages of the source.
For Antibacterial Activity rating in this document: key: 0: No Effect; 9: Kill of Bacteria; 5: Stasis, but not Kill of all Bacteria.

Regarding `CCC(CSC(=S)N(C)C)[N+](=O)[O-]` (stereo not shown) [Example 6, 2-Nitrobutyl Dimethyldithiocarbamate], the “Antibacterial Activity rating” value in [1], in [10] and in test [15] was 9 in each case. The “Agar Dilution Plate rating” value is 5 (100% effectiveness of the test compound against the specified organism) in [2]; 5 (100% effectiveness of the test compound against the specified organism) in [3]; 5 (100% effectiveness of the test compound against the specified organism) in [4]; 5 (100% effectiveness of the test compound against the specified organism) in test [5]; 5 (100% effectiveness of the test compound against the specified organism) in [6]; 0 in [7] (100 ppm, 72 hours at 23° C). Besides, the “Agar Dilution Plate rating” value in [8], in [9] and in [11] was 5 (100% effectiveness of the test compound against the specified organism) throughout. For the same compound, the inhibition (as a rule, the relative decrease from the control value, in per cent) at 1 ppm in test [12] was 0%; in [13], 100%; in [14] it was 100%. In addition, the inhibition at 10 ppm in [12], in test [13] and in [14] was 100% throughout. Besides, the inhibition at 100 ppm in [12], in test [13] and in test [14] was 100% in each case.

Take `CC(=O)C(CSC(=S)N(C)C)=C(C)O` [Example 9, 2-(1-Hydroxyethylidene)-3-oxobutyl Dimethyldithiocarbamate]: the “Antibacterial Activity rating” value in test [1] is 0; in test [10], 5; in test [15] it was 0. The “Agar Dilution Plate rating” value was determined as 0 in test [2]; 0 in [3]; 0 in [4]; 0 in test [5]; 0 in [6]; 0 in [7] (100 ppm, 72 hours at 23° C). Besides, the “Agar Dilution Plate rating” value is recorded as 0 in [8], 5 (100% effectiveness of the test compound against the specified organism) in test [9] and 0 in test [11]. In addition, the inhibition at 1 ppm in test [12], in test [13] and in test [14] was 0% throughout. Moreover, the inhibition at 10 ppm in test [12], in test [13] and in test [14] was 0% throughout. For the same compound, the inhibition at 100 ppm in [12], in test [13] and in test [14] was 100% in each case. Also, the disease control index in test [16] (150 ppm) worked out at 0; in test [16] (300 ppm), 2; in test [16] (600 ppm) it was 3; in [16] (1200 ppm), 4.

As to `CC(=O)C(CSC(=S)N(C)C)SC(=S)N(C)C` (stereo not shown) [Example 10, Acetylethylene Dimethyldithiocarbamate], the “Antibacterial Activity rating” value is 9 in test [1], 9 in test [10] and 5 in [15]. In addition, the “Agar Dilution Plate rating” value in [2] is listed as 5 (100% effectiveness of the test compound against the specified organism); in test [3], 5 (100% effectiveness of the test compound against the specified organism); in [4], 5 (100% effectiveness of the test compound against the specified organism); in [5], 5 (100% effectiveness of the test compound against the specified organism); in test [6] it was 5 (100% effectiveness of the test compound against the specified organism); in [7], 0. The “Agar Dilution Plate rating” value in [8], in [9] and in test [11] was 5 (100% effectiveness of the test compound against the specified organism) each time. Moreover, the disease control index in [17] (at 100 ppm) turned out to be 4; in [17] (at 500 ppm) it was 5; in [16] (at 75 ppm), 4; in [16] (at 500 ppm) it was 5. In addition, the inhibition at 1 ppm in [12], in test [13] and in test [14] was 100% throughout. Besides, the inhibition at 10 ppm in [12], in [13] and in [14] was 100% each time. Besides, the inhibition at 100 ppm in test [12], in [13] and in test [14] was 100% throughout.

Regarding `CC(=O)Oc1ccc(C(C[N+](=O)[O-])SC(=S)N(C)C)cc1` (stereo not drawn) [Example 24, 4-Acetoxy-α-(nitromethyl)benzyl Dimethyldithiocarbamate], the “Agar Dilution Plate rating” value in test [2] is reported as 0; in [3] it was 0; in test [4], 0; in [5] it was 0; in [6], 5 (100% effectiveness of the test compound against the specified organism); in test [7] (100 ppm, 72 hours at 23° C), 0. The “Agar Dilution Plate rating” value in test [8], in test [9] and in test [11] was 5 (100% effectiveness of the test compound against the specified organism) each time. The disease control index stood at 5 in [18]; 3 in test [17] (at 100 ppm); 5 in [17] (at 500 ppm); 3 in test [16] (at 75 ppm); 4 in [16] (at 500 ppm). The inhibition at 1 ppm in test [12] and in test [14] was 0% throughout. Also, the inhibition at 10 ppm in [12] and in test [14] was 100% each time. The values for the inhibition at 100 ppm in [12], in test [13] and in test [14] were 100%, 0% and 100%, respectively.

Turning to `CN(C)C(=S)SC(C[N+](=O)[O-])c1cccc2ccccc12` (stereo not shown) [Example 31, 1-Naphthyl-2-nitroethyl Dimethyldithiocarbamate], the “Agar Dilution Plate rating” value was 0 in test [2]; 5 (100% effectiveness of the test compound against the specified organism) in test [3]; 0 in test [4]; 5 (100% effectiveness of the test compound against the specified organism) in test [5]; 5 (100% effectiveness of the test compound against the specified organism) in test [6]; 0 in [7] (100 ppm, 72 hours at 23° C). For the same compound, the “Agar Dilution Plate rating” value in test [8], in [9] and in [11] was 5 (100% effectiveness of the test compound against the specified organism) throughout. Moreover, the disease control index in test [18] is reported as 4; in test [17] (at 100 ppm), 5; in test [17] (at 500 ppm) it was 5; in test [16] (at 75 ppm) it was 4; in test [16] (at 500 ppm), 5. Also, the inhibition at 1 ppm in test [12], in test [13] and in [14] was 0% each time. The inhibition at 10 ppm in test [12], in [13] and in test [14] was 0% throughout. Besides, the inhibition at 100 ppm in [12], in test [13] and in [14] was 100% in each case.
